Measured values taken from patent publication US4885297A, “Thiazolopyridine compounds, processes for the preparation thereof and pharmaceutical composition comprising the same” (Fujisawa Pharmaceutical Co., Ltd., priority 1987, dated 1989).
pIC50: −log10 of the molar value. Where two headings read alike, the source gives them in different places.

How the values were obtained:
[1] = system: Platelet aggregation (rabbit platelet rich plasma); experiment: Platelet aggregation in vitro (rabbit platelet rich plasma, ADP- or collagen-induced); assay type: cell-based; details: Oryctolagus cuniculus, rabbit PRP, pH 7.4, 37° C.
Description: Platelet rich plasma (PRP) which contains 6-7×10^8 platelets/ml was prepared from rabbit blood. To the 200 μl of PRP, 5 μl of calcium chloride (1 mM) and 50 μl of 25 mM Tris-acetate solution (pH 7.4) containing 120 mM NaCl or test compound were added successively, and then stirred for 2 min. at 37° C. To the solution, 5 μl of adenosine diphosphate (ADP) (2.5 μM) or collagen (2.5 μg/ml) was added to an aggregation inducer. Aggregation was measured by using an aggregometer (NKK HEMATRACER 1). Activities of inhibitors (test compounds) were expressed as ID50 values i.e. Doses required to inhibit the platelet aggregation responses by 50%.

[2] = system: Platelet aggregation (rat blood); experiment: Platelet aggregation ex vivo (collagen-induced, after oral administration); assay type: in vivo, Male Sprague-Dawley rats; details: one hour after administration, collagen 5.0 μg/ml
Description: Male Sprague-Dawley rats weighing about 250 g were used after overnight fasting. One hour after oral administration of test compound or vehicle of test compound (control), blood was collected into a tube containing 0.1 vol. of 3.8% sodium citrate. To the 0.45 ml of blood, 0.05 ml of collagen (final concentration 5.0 μg/ml) was added and then incubated for 5 min. at 37° C. under shaking.
The reaction was terminated by addition of 1 ml of 10 mM phosphate buffered saline (pH 7.4) containing 11.5 mM EDTA and 1% formalin. The reaction mixture was centrifuged at 70 xg for 5 min. and platelet count of upper phase was measured by Technicon Auto Analizer.
Platelet aggregation was calculated according to the following formula: [formula] A; Platelet count after addition of vehicle of collagen B; Platelet count after addition of collagen
Inhibition of the test compound was calculated according to the following formula; [formula] C; Platelet aggregation (%) of control D; Platelet aggregation (%) of Test compound

SMILES: CN1CCN(C(=O)Cn2c(=O)sc3ncc(Cl)cc32)CC1 [Example 2, 6-chloro-2-oxo-1-[(4-methyl-1-piperazinyl)carbonylmethyl]-1,2-dihydrothiazolo[5,4-b]pyridine]
- pIC50 ([1]; inducer ADP (2.5 μM), read-out: ID50 ADP): 4.26
- pIC50 ([1]; inducer collagen (2.5 μg/ml), read-out: ID50 Collagen): 4.43
- Inhibition (%) ([2]; 10 mg/kg oral): 8%
- Inhibition (%) ([2]; 32 mg/kg oral): 103%
- Inhibition (%) ([2]; 100 mg/kg oral): 121%
